{"source": "patent US11718609B2", "about": "“Heparanase inhibitors and use thereof” (Beta Therapeutics Pty Ltd, priority 2016, dated 2023)", "key": {"[1]": {"molecular_target": "Recombinant human active heparanase (Homo sapiens (Human), UniProt Q9Y251)", "sequence (Q9Y251 158-543)": "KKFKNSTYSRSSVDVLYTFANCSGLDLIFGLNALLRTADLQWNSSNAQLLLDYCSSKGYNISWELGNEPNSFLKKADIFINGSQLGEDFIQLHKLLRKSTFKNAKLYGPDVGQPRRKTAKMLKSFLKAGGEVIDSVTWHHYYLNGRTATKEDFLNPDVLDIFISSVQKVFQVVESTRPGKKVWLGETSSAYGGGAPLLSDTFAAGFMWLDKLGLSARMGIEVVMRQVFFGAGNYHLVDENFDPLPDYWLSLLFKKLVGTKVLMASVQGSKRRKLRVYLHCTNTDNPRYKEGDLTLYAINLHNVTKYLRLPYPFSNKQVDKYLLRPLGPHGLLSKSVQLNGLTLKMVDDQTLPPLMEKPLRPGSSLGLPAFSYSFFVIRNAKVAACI", "sequence (Q9Y251 36-109)": "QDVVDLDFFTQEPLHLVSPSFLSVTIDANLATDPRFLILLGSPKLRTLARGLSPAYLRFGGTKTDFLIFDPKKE", "assay": "Heparanase inhibition assay (colorimetric, fondaparinux substrate, WST-1 detection)", "type": "biochemical", "details": "for IC50: average ± SEM, direct comparison to OGT_2115, read-out: Average IC50 (μM ± SEM), heparanase enzyme inhibition", "description": "Recombinant human active heparanase derived from Chinese hamster ovary cells was from R&D Systems. […] Following initiation of the reaction by addition of fondaparinux, the plate was sealed with adhesive film and incubated at 37° C. for 20-24 h. […] For the enzymatic assays, test compounds were dissolved and added to the assay at varying concentrations to calculate the level of inhibition.\nHeparanase inhibition activity of various compounds of the invention was determined using standard methods."}, "[2]": {"system": "C57BL6J mice", "assay": "Photo-oxidative damage of the retina, retinal function by electroretinography (ERG)", "details": "intravitreal injection 1 μL of 200 μM, 5 days photo-oxidative damage", "quoted_text": "Significant trends in data points were ascertained using the one-way or two-way analysis of variance (ANOVA) to determine statistical significance (p<0.05) that is indicated by asterisks (*).\nC57BL6J mice were born and raised in 12:12 hrs light:dark cycle of 5 lux in individually vented cages, with free access to food and water. Age-matched adult mice (8-10 weeks) were randomly assigned to light damage and dim-reared control (non-light damage) groups. Animals of the light damage group were continuously exposed to 100 k lux white LED light for 1, 3, 5 and 7 days. […] Dim-reared control animals were also pupil dilated twice each day, but were returned to dim cyclic light (12:12 hrs light:dark, 5 lux light).\nDuring bright-light exposure, animals were housed in plastic boxes (two per box), with free access to food and water. The floors of the cages were coated with a reflective Perspex surface and illuminated by a 100-W 65000 k natural white LED (high CRI LED, Yuji, Beijing) mounted 18 cm above the plastic boxes. The LED light has an emission spectrum which more closely resembles daylight than halogen or incandescent bulbs. […] Animals were provided with bedding, food and water during the time course of light exposure, and their behaviour was monitored daily. […]"}, "[3]": {"details": "cited from earlier work"}, "[4]": {"system": "db/db mice", "assay": "Insulin content of pancreatic islets in db/db mice (anti-insulin staining, morphometric analysis)", "type": "in vivo, mouse", "details": "50 mg/kg daily IP", "description": "FIG. 5. Insulin content in pancreas sections in db/db mice a model of Type 2 diabetes. Mice were treated daily with 50 mg/kg PI-88 IP from 4 weeks of age. Onset of clinical diabetes was determined by measuring urine glucose twice weekly with Multistix reagent strips and confirmed by measuring non-fasting blood glucose levels in tail vein blood using a MediSense glucometer with hyperglycemia defined as 2 consecutive blood glucose readings of 16 mmol/l or greater. Insulin was detected by anti-insulin antibody staining.\nThe db/db mouse has defective leptin signalling resulting from a point mutation in the leptin receptor gene. Plasma insulin levels become elevated very early in life (10-14 days of age), and the affected animals are obese by the time they are 3-4 weeks old. The animals are insulin resistant, hypertriglyceridemic, and have impaired glucose tolerance.\ndb/db mice were treated with saline or 50 mg/kg of PI-88 by daily intraperitoneal injection. At the cessation of treatment pancreatic islets were isolated and stained for insulin and the level of insulin expression assessed by quantitative morphometric analyses."}, "[5]": {"system": "db/db mice", "assay": "Intra-islet heparan sulfate content in db/db mice (Alcian blue staining, morphometric analysis)", "type": "in vivo, mouse", "details": "50 mg/kg daily IP", "description": "FIG. 6. Intra-islet HS content in pancreas sections in treated db/db mice. Mice were treated daily with 50 mg/kg PI-88 IP from 4 weeks of age. Onset of clinical diabetes was determined by measuring urine glucose twice weekly with Multistix reagent strips and confirmed by measuring non-fasting blood glucose levels in tail vein blood using a MediSense glucometer with hyperglycemia defined as 2 consecutive blood glucose readings of 16 mmol/l or greater. Islet HS was detected by Alcian blue staining.\ndb/db mice were treated with saline or 50 mg/kg of PI-88 daily by intraperitoneal injection. At the cessation of treatment pancreatic islets were isolated and stained with alcian blue to visualise heparan sulfate and the heparan sulfate content of the islets was assessed by quantitative morphometric analyses."}}}
{"molecule": "COc1cc2nc(N3CCN(C(=O)C4COc5ccccc5O4)CC3)nc(N)c2cc1OC", "note": "(stereo not drawn) [doxazosin, reference compound]", "values": [{"measurement": "heparanase inhibition (in words)", "setting": "[1]", "value": "inhibits heparanase"}]}
{"molecule": "COc1cc2nc(NCCNC(=O)c3nnc(-c4ccccc4)o3)nc(N)c2cc1OC.Cl", "note": "[BT2172]", "values": [{"measurement": "ERG a-wave and b-wave responses versus control (PBS)", "setting": "[2]", "value": "higher a- and b-wave responses than the control (PBS) group"}, {"measurement": "retinal function (ERG)", "setting": "[2]", "value": "maintained retinal function"}]}
{"molecule": "PI-88", "values": [{"measurement": "half-life", "setting": "[3]", "value": "approximately 30 minutes"}, {"measurement": "expression of insulin in islets", "setting": "[4]", "value": "increased compared to the saline treated db/db mice and is near to the level of insulin expression in the wild-type mice"}, {"measurement": "islet heparan sulfate levels", "setting": "[5]", "value": "increased compared to the saline treated db/db mice and are near to the levels of heparan sulfate in the islets of wild-type mice"}]}
{"molecule": "COc1cc2nc(NCCNC(=O)c3nnc(-c4cc5ccccc5[nH]4)o3)nc(N)c2cc1OC", "note": "[BT2169]", "values": [{"measurement": "IC50", "setting": "[1]", "value": "4 ± 0.09", "unit": "µM"}]}
{"molecule": "COc1cc2nc(-c3cccc4cccnc34)nc(NCCc3ccccc3)c2cc1OC", "note": "[BT2164]", "values": [{"measurement": "IC50", "setting": "[1]", "value": "3.13 ± 0.72", "unit": "µM"}]}
{"molecule": "COc1cc2nc(-c3cccc4cccnc34)nc(NCCNC(=O)c3nnc(-c4ccccc4)o3)c2cc1OC", "note": "[BT2187]", "values": [{"measurement": "IC50", "setting": "[1]", "value": "3.64 ± 0.62", "unit": "µM"}]}
